In publication PMC3349818 (Journal of Medicinal Chemistry, 2012):

What was measured:
[1] = Pharmacokinetic study in female CD1 mice, single oral dose; conditions: CD1, mouse, in vivo, 200 mg/kg
[2] = In vitro liver microsome assay, mouse; assay type: in vitro ADME; conditions: predicted from mouse liver microsome stability

## CCOC(=O)c1c(-c2cccc(Br)c2)[nH]c2cc(OC)c(F)cc2c1=O [20h]
[1]
  AUC: > 70 µM·h

## CCOC(=O)c1c(-c2cccc(Cl)c2)[nH]c2cc(OC)c(F)cc2c1=O [20g, Ethyl 2-(3-chlorophenyl)-6-fluoro-7-methoxy-4-oxo-1,4-dihydroquinoline-3-carboxylate]
[2]
  predicted in vivo mouse CL′inf: 9.4 mL/min/kg
[1]
  AUC: > 125 µM·h
